From PMC3479139, “Diverse Small Molecule Inhibitors of Human Apurinic/Apyrimidinic Endonuclease APE1 Identified from a Screen of a Large Public Collection” (PLoS ONE, 2012)
Where two headings read alike, the source gives them in different places.

Assays:
HeLa cells [1] = experiment: MMS potentiation assay (CellTiter Glo viability); type: cell-based, human; parameters: key: N.A., no activity observed; P, positive; I, inconclusive; N.T., not tested; conditions: for MMS Assay: potentiation of the genotoxic effect of methylmethane sulfonate
Procedure: HeLa cells were plated at 6000 cells/well in DMEM culture medium containing 10% FBS into white solid bottom 384-well cell culture plates. The plates were incubated at 37°C overnight for cell attachment, followed by media replacement. The fresh medium contained serial dilutions of compounds of interest in the presence (0.4 mM final) or absence of MMS. The plates were incubated for 24 h at 37°C. Cell viability was determined by luminescence detection after an addition of 15 µL of CellTiter Glo reagent (Promega, Madison, WI). Percent viability was calculated for each concentration of compound tested in duplicate by relating the corresponding luminescence to that of a negative DMSO vehicle control. MMS potentiation trends were defined as follows: negative (-), if cell viability in the compound-plus-MMS treatment was the same as that of the DMSO-plus-MMS control (overlapping dose-response curves); inconclusive (I), if the shift in the cell viability dose-response upon MMS inclusion relative to compound-alone was less than 30%; and positive (P), if the difference between the compound-plus-MMS and compound-alone curves was at least 30%, and maintained within at least a two-fold compound concentration span.
To examine the biological prospects of the top compounds, we tested their ability to inhibit APE1 DNA repair activity by assessing enhancement of MMS toxicity in mammalian cells. MMS creates methylated-base damage to genomic DNA, which, when excised by an alkylpurine DNA glycosylase, results in a high number of cytotoxic AP sites. We compared the viability of HeLa cells exposed to a dilution series of inhibitor alone to a combination of a fixed MMS concentration with the same dilution series of inhibitor by using a standard CellTiter Glo luminescence assay. This technique measures the number of viable cells in culture based on quantitation of the ATP present, which signals the presence of metabolically active cells. The assay was further optimized for 384-well plates, allowing a high-throughput testing of multiple hits at multiple concentrations, a scope of investigation previously impossible due to the very low throughput of the traditionally applied colony formation assay.
From the 223 compounds found positive in the gel-based APE1 assays, exclusion of the most promiscuous hits, that is, those that were both DNA binders and EndoIV-inhibitory, yielded a set of 170 compounds (Figure 3). This shortened group of hits was tested in the cell-based potentiation assay for their ability to dose-dependently enhance sensitivity of HeLa cells to the alkylating agent MMS.

APE1 [2] = biological target: T1, APE1 (Homo sapiens, UniProt P27695); experiment: Fluorescence polarization (FP) displacement assay of APE1 binding to AP-DNA probe;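 further: TAMRA 5′-labeled duplex DNA with THF abasic site (5 nM) and APE1 (20 nM), Mg2+-free buffer, 15 min at room temperature, inhibition seen as lowered polarization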
T1 construct: made in house

[3] = biological target: double-stranded 17-mer DNA fragment; experiment: ThO (Thiazole Orange) DNA displacement assay; type: binding; conditions: read-out: ThO-DNA binding IC50;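 further: miniaturized displacement of the intercalating dye from unlabeled duplex DNA, used to flag nonspecific DNA binders, chiefly intercalators, groove binders may be missed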
APE1 [4] = biological target: T1, APE1; experiment: Gel-based radiotracer (32P) APE1 incision assay; type: biochemical; parameters: concentration or dose not given beside the values; conditions: percent incision shown; entries 1-112;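 further: APE1 incision reactions ran 5 min at 37 °C, with cleaved product and intact substrate resolved electrophoretically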
APE1 [5] = biological target: T1, APE1; experiment: Fluorogenic kinetic qHTS APE1 incision assay (primary screen and retest of cherrypicked samples); type: biochemical;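 further: purified APE1 cleaving a fluorophore/dark-quencher labelled 17-mer duplex DNA bearing a tetrahydrofuran AP site, fluorescence rise followed kinetically over the first 2 min, inhibition normalized to controls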
E. coli Endo IV = biological target: T2, E. coli Endo IV (Escherichia coli, UniProt P0A6C1); experiment: E. coli Endo IV profiling counterscreen; type: biochemical;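 further: selectivity counterscreen of candidate APE1 inhibitors against the bacterial endonuclease Endo IV, run in the same assay format as the primary APE1 high-throughput screen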
T2 construct: made in house
Source text: In order to screen out nonselective compounds, such as non-specific DNA binders and inhibitors of related enzymes, we used a miniaturized ThO DNA displacement assay and a counterscreen against the bacterial endonuclease E. coli Endo IV, respectively, following the previously published protocols [21].
To probe the selectivity of the candidate APE1 inhibitors, we tested them against E. coli EndoIV [36], employing the same assay as used in the HTS.

HeLa cells [6] = experiment: AP site measurement in genomic DNA; type: cell-based, human; conditions: 275 µM MMS plus inhibitor; for AP site levels, combination versus MMS-alone, repeat testing: repeat test (Figure S1); for AP site levels, combination treatment versus MMS-alone: 24 h, initial test (Figure 8)
Procedure: HeLa cells at 80% confluency (6×10^5 cells) were subjected to the following treatments in a 6-well plate for 24 hours at 37°C: 1) DMSO alone, 2) 275 µM MMS, 3) APE1 inhibitors dissolved in DMSO (5–20 µM final compound concentration), and 4) the inhibitors as in treatment 3 in combination with 275 µM MMS. Cells were then harvested and processed using a Qiagen Genomic DNA isolation kit (Germantown, MD). After DNA quantitation, AP sites were measured using the DNA Damage Quantification kit from Dojindo Molecular Technologies (Rockville, MD).
As stated above, the application of the genotoxic agent MMS results in an increase in the level of AP sites within the genome. An effective APE1-targeted inhibitor applied under the conditions of increased genotoxic stress is expected to interfere with the repair of AP sites, while ideally having no effect on the AP site levels when applied as a single agent. Thus, the net effect of treating cells with a combination of MMS and inhibitor would be an increase in the number of AP site lesions. To determine the effect on AP site accumulation caused by treatment with MMS in combination with an APE1 inhibitor, as compared to treatment with MMS or inhibitor alone, we measured AP site levels in the chromosomal DNA from HeLa cells using an aldehyde-reactive probe-based colorimetric assay. The concentrations of MMS and inhibitor (275 µM for MMS and between […] for the inhibitor, respectively) were selected to fall below the onset of cytotoxicity for each agent based on the analysis of the MMS potentiation data shown in Figure 5.

APE1 [7] = biological target: T1, APE1; experiment: Gel-based APE1 incision assay with fluorescence (TAMRA) detection; type: biochemical
[8] = initial quantitative high-throughput screen, read-out: APE1 qHTS IC50
[9] = retest of cherrypicked sample, read-out: APE1 Retest IC50
[10] = estimated IC50, fluorophore detection, entries 113-223, read-out: F-PAGE Assay IC50
[11] = entries 113-223: fluorophore detection, estimated IC50, read-out: Gel-based electrophoretic separation assay with fluorophore detection, estimated IC50 (column headed Radiotracer Assay (%Activity))

T1 sequence (P27695 whole entry): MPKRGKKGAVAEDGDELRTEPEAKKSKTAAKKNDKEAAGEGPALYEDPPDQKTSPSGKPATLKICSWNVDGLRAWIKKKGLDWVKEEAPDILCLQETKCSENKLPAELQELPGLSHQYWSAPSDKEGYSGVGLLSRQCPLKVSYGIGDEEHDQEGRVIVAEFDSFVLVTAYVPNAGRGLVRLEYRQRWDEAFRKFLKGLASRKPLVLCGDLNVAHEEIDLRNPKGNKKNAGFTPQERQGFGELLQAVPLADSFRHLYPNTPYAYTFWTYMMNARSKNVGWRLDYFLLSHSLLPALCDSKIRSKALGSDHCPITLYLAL

SMILES	MMS Assay (HeLa cells [1])	IC50 (APE1 [2]; read-out: FP IC50) [µM]	IC50 [3] [µM]	Radiotracer Assay (%Activity) (APE1 [4]) [%]	IC50 (APE1 [5]; [8]) [µM]	IC50 (APE1 [5]; [9]) [µM]	IC50 (E. coli Endo IV; read-out: EndoIV IC50) [µM]	IC50 (APE1 [5]; initial qHTS, 7-point titration, read-out: qHTS, IC50 obtained in the initial quantitative high-throughput screen) [µM]	AP site levels, combination versus MMS-alone, repeat testing (HeLa cells [6])	AP site levels, combination treatment versus MMS-alone (HeLa cells [6])	IC50 (APE1 [2]) [µM]	IC50 (APE1 [5]; APE1 Retest IC50, retest of cherrypicked sample) [µM]	IC50 (APE1 [5]; APE1 qHTS IC50, initial quantitative high-throughput screen) [µM]	IC50 (E. coli Endo IV) [µM]	IC50 (APE1 [7]; [10]) [µM]	IC50 (APE1 [7]; [11]) [µM]	MMS Assay: potentiation of the genotoxic effect of methylmethane sulfonate (HeLa cells [1])
O=C(O)c1ccccc1-c1ccc(/C=c2\sc3nc4cc(Br)cnc4n3c2=O)o1 [MLS000107874]	I	17.8	> 57	11	22.4	8.9	> 57										
COc1ccc(Cc2nnc(NC(=O)Cc3cccs3)s2)cc1OC [MLS000115025]	P	> 57	> 57	48	28.2	2	> 57	28.1	support the initially-observed enhancements	obscured by large standard deviations							
O=C1CC(=O)N(Cc2ccco2)C(=S)N1 [MLS000535286]	I	> 57	> 57	28	11.2	12.6	> 57										
CC(C(=O)O)N1C(=O)/C(=C/C=C/c2ccco2)SC1=S (stereo not drawn) [MLS000551724]	I	12.6	> 57	9	2.8	0.9	> 57										
O=C(O[C@@H]1OC2COC(=O)c3cc(O)c(O)c(O)c3-c3c(cc(O)c(O)c3O)C(=O)O[C@@H]([C@H]1O)[C@@H]2O)c1cc(O)c(O)c(O)c1 [MLS000563483]	I	> 57	> 57	16	0.07	0.05	> 57										
O=C1NC(=O)N(Cc2ccco2)C(=O)C1=CC=Cc1ccco1 [MLS000587064]	P		> 57	14					support the initially-observed enhancements	obscured by large standard deviations	> 57	5	2.8	> 57			
COc1ccc2c(c1)c(=O)oc1cc(OCC(=O)N3CCc4ccccc4C3)ccc12 [MLS000594187]	P	> 57	> 57	51	10	3.91	> 57			no statistical significance							
Cn1cccc1/C=C1\C(=O)NC(=O)N(Cc2ccco2)C1=O [MLS000677191]	I	> 57	> 57	5	14.1	4.5	> 57										
COc1ccc(CN2C(=O)NC(=O)/C(=C\c3ccco3)C2=O)cc1 [MLS000723827]	I	> 57	> 57	18	22.4	14.1	> 57										
COc1ccc(CCn2c(O)cc3nn(-c4nc5ccccc5s4)c(=O)c-3c2C)cc1 [MLS000763226]	I	> 57	10	20	31.6	15.8	> 57										
O=C(O)c1cccc(-n2cccc2/C=C/[N+](=O)[O-])c1 [MLS000778420]	P	> 57	> 57	46	3.9	4.5	> 57										
O=C1/C(=C/C=C/c2ccco2)SC(=S)N1NS(=O)(=O)c1ccccc1 [MLS000778639]	I	> 57	> 57	6	2.5	3.5	> 57										
COc1c(-c2ccc(O)cc2)oc2cc(O)cc(O)c2c1=O [MLS000877008]	I	> 57	> 57	43	1.1	2.8	> 57										
CC1CCc2c(sc(NC(=O)/C=C/c3cccs3)c2C(=O)O)C1 (stereo not drawn) [MLS000974674]	P	> 57	36.3		11.9	45.7	> 57								6.3		
COc1ccc(C(=O)Nc2ccnn2C2CCN(Cc3ccc4nonc4c3)CC2)cc1 [MLS001090278]		> 57	> 57		5.3	10.2	> 57									10	I
CCc1cc(CNC(=O)c2ccc(OC3CCN(CCc4ccccc4)CC3)cc2)on1 [MLS001105846]	P	32.4	> 57		11.9	6.5	> 57								4.5		
O=C1COc2ccc(C(=O)COC(=O)/C=C/c3ccc(Br)o3)cc2N1 [MLS001142042]	I	> 57	> 57		4.7	14.5	> 57								2.2		
N#C/C(=C\c1ccc(O)c(O)c1)C(=O)Nc1cccc2ncccc12 [MLS001173932]	I	> 57	2		3	5.1	> 57								0.6		
O=C(O)C1Nc2ccc(Br)cc2C2C=CCC12 (stereo not drawn) [MLS001209038]	I	> 57	25.7		13.4	18.2	> 57								6.3		
Cc1cccn2c(=O)c3cc(C(=O)NCc4ccco4)c(=N)n(C4CCCCC4)c3nc12 [MLS001217741]		> 57	> 57		16.8	12.9	> 57									22.4	P
CC(=O)Oc1cc(C(=O)OCC(=O)N2CCc3ccccc3C2)cc(OC(C)=O)c1OC(C)=O [MLS002252117]	I	> 57	> 57		5.3	11.5	> 57								4.5		
